Data taken from paper PMC9972953, “Thermophilic Carboxylesterases from Hydrothermal Vents of the Volcanic Island of Ischia Active on Synthetic and Biobased Polymers and Mycotoxins” (Applied and Environmental Microbiology, 2023).

Key:
Type in all cases: biochemical, uncultured Chloroflexota bacterium
Details in all cases: pH 9.0, 30°C
IS10 [1] = tested on: T1, IS10; assay: spectrophotometric release of p-nitrophenol, […] nm
T1 construct: N-terminal 6xHis tag (pET-46 Ek/LIC), E. coli BL21(DE3); dimer in solution

IS12 [2] = tested on: T2, IS12; assay: spectrophotometric release of p-nitrophenol, […] nm
T2 construct: N-terminal 6xHis tag (pET-46 Ek/LIC), E. coli BL21(DE3); dimer in solution

IS10 [3] = tested on: T1, IS10; assay: spectrophotometric release of α-naphthol, […] nm
IS12 [4] = tested on: T2, IS12; assay: spectrophotometric release of α-naphthol, […] nm

| SMILES | Km (IS10 [1]) | Km (IS12 [2]) | KM (IS10 [3]) | Km (IS10 [3]) | Km (IS12 [4]) |
| --- | --- | --- | --- | --- | --- |
| CC(=O)Oc1ccc([N+](=O)[O-])cc1 [pNP-acetate] | 50 ± 10 µM | 220 ± 50 µM | – | – | – |
| CCCC(=O)Oc1ccc([N+](=O)[O-])cc1 [pNP-butyrate] | 60 ± 10 µM | 80 ± 10 µM | – | – | – |
| CCCCCC(=O)Oc1ccc([N+](=O)[O-])cc1 [pNP-hexanoate] | 40 ± 10 µM | 90 ± 10 µM | – | – | – |
| CCCC(=O)Oc1cccc2ccccc12 [αN-butyrate] | – | – | 0.12 ± 0.04 mM | – | – |
| CCC(=O)Oc1cccc2ccccc12 [αN-propionate] | – | – | – | 60 ± 20 µM | 690 ± 190 µM |
